Data on 1 molecule can be found in article PMC4109680, “Identification and Preclinical Pharmacology of the γ-Secretase Modulator BMS-869780” (International Journal of Alzheimer's Disease, 2014).

Usually Cmax stands for the maximum level reached in the sampled fluid or tissue.

pIC50: −log10 of the molar value. Read-outs that look alike come from different tables or passages of the source. Where only a bound is given, the exact number is not on record here.

The nature of data set [1]: Prediction of human PK and dose by allometric scaling combined with rat PK/PD. The protocol: Interspecies allometric scaling adjusted for brain weight was used to predict human CLTp, while simple allometric scaling was used to predict Vss. Briefly, the Vss and brain weight adjusted CLTp values from nonclinical species were plotted against body weight on a log-log scale to yield estimates of Vss and CLTp × brain weight in humans. The estimated CLTp × brain weight for human was adjusted for the brain weight of humans to yield a predicted CLTp. […] Noncompartmental analysis was performed using WinNonlin software (version 5.0; Pharsight Corporation, Mountain View, CA). The k a for each species was obtained from the IV and PO (nanosuspensions) of rat, dog, and cynomolgus monkey by deconvolution of plasma concentration-time data using Kinetica (version 5.0; Seattle, WA). The bioavailability was estimated from the nanosuspensions from rat, dog, and cynomolgus monkeys. The average k a and F, along with the Vss and CLTp from allometric scaling, were incorporated into a two-compartment model to predict the human oral plasma concentration-time profiles.

The subject of data set [2] is brain Aβ1-42, brain Aβ1-40, plasma Aβ1-40. The data set can be described thus: Rat intraperitoneal dose response, brain and plasma Aβ 5 hours after dosing. It counts as in vivo. As to conditions: for pIC50: Rattus norvegicus. The protocol: IC50 determinations for Aβ1-42 and Aβ1-40 in H4-APPsw cultures in 384-well format were determined using homogeneous time-resolved fluorescence immunoassays as previously described. The principle of these assays is illustrated in Figures 1(c) and 1(d). In other experiments using H4-APPsw cultures, Aβ was quantified by ELISA; for Aβ1-42 the combination of monoclonal antibodies was 26D6 and 565-HRP; for Aβ1-40 it was TSD and 26D6-HRP, and for Aβ1-x it was 4G8 and 26D6-HRP. In some experiments a novel 4-plex Aβ electrochemiluminescence immunoassay was used (Mesoscale Discovery catalog number N45ZA-1). Briefly, the 4-plex was carried out in 96-well format, with 4 separate spots of capture antibodies in each well. The 96-well plates were prepared by the manufacturer, with spots of monoclonal antibodies for Aβ1-42, Aβ1-40, and Aβ1-38, and an additional fourth spot of streptavidin in each well. Plates were initially incubated with blocking buffer (5% BSA in phosphate buffered saline, 200 μL per well) for 2 hours at ambient temperature and then with D2A6H-biotin conjugate (50 ng/mL in 1% BSA, phosphate buffered saline, 25 μL per well) for 1 hour. Plates were then rinsed with phosphate buffered saline before addition of experimental samples for determination of Aβ1-42, Aβ1-40, Aβ1-38, and Aβ1-37 levels, following the manufacturer's instructions as for the Aβ 3-plex kit (catalog number K15148E-1). Rat brain extracts for use in the 4-plex assay were made in 0.2% diethylamine, as previously described. For detection of rat Aβ peptides in the 4-plex (Figure 5), 252Q6-sulfo-tag conjugate was used, and for detection of human Aβ peptides from cell cultures 6E10-sulfo-tag conjugate was used. For Aβ in transiently transfected PS1/PS2 dKO fibroblasts, Aβ1-42 was quantified using an ELISA kit (WACO), and Aβ1-40 was quantified by ELISA as described above for H4-APPsw cultures. For triple transgenic mice (3xTg; [63]), human transgenic Aβ1-42 was assayed in brain homogenates using an ELISA kit (WACO). For the rat and mouse experiments illustrated in Figures 7 and 8, brain samples were prepared by solid phase extraction, and endogenous rat brain Aβ1-42 and Aβ1-40 were quantified by ELISA as previously described for wild type mice. For brain extracts made using solid phase extraction, calibration of Aβ was relative, based on the approximately linear response of the assay in the range tested. For brain extracts made in 0.2% diethylamine, Aβ1-42, Aβ1-40, Aβ1-38, and Aβ1-37 concentrations in brain and cell culture samples were determined by fitting the results of immunoassays against calibration curves derived from a range of dilutions of the corresponding synthetic peptides on each assay plate using a quadratic curve fit (Graphpad Prizm 5.0). Aβ1-x was calibrated in the same way against synthetic Aβ1-40 peptide. Results were expressed in units of pM, corrected for sample dilution.
Figure 7 BMS-869780 dose response and evaluation of residual Aβ levels in rat brain. (a) Groups of rats received intraperitoneal (IP) injections of vehicle or BMS-869780 at doses of 100, 30, 10, 3, 1, and 0.3 mg/kg. Additional rats were dosed with GSI BMS-698861 at 30 mg/kg as a positive control for Aβ-lowering. Group sizes were seven rats for each dose of BMS-869780 and 14 rats for vehicle and GSI dose groups. Brain and plasma were harvested 5 hours after dosing. Brain Aβ1-42 (green), brain Aβ1-40 (blue), brain Aβ1-x (black), and plasma Aβ1-40 (red) were determined. Values are expressed as % relative to vehicle group mean. Whiskers represent standard error. ⊗Aβ1-x was not determined in the groups dosed at 3, 1, and 0.3 mg/kg. (b) Brain Aβ1-40 was plotted against brain Aβ1-42 for each rat dosed with BMS-869780 (black ▼) and for each rat dosed with vehicle (grey ●). Values are expressed as % relative to vehicle group mean. Whiskers represent standard error. […]

Setting [3] is: Human 700 mg PO suspension (predicted steady state).
Where [4] appears, read: 3 mg/kg IP, 5 hours after dosing.

In the case of `COc1cc(Nc2nc3n(n2)CCCC[C@H]3c2ccc(F)cc2)ccc1-n1cnc(Cl)c1` [BMS-869780], in data set [1] (setting [3]), the “Brain Aβ ABEC 24 hr Aβ1-42” value was 25% and the “Plasma AUC 0–24 hr” value is 17.8 µM·h. For the same molecule, the Cmax in data set [1] (plasma, oral, Human 700 mg once daily (predicted steady state)) was 1270 nM. For the same molecule, the AUC(0-t) in data set [1] (plasma, Human 700 mg PO suspension (predicted steady state), read-out: Plasma AUC 0–24 hr) is 17.6 µM·h. Also, the “plasma Aβ1-40 lowering” value in data set [2] (0.3 mg/kg IP, 5 hours after dosing) is on record as “ca. 50%”. Also, in data set [2] (setting [4]), the “brain Aβ1-40 lowering” value is “ca. 50%” and the “brain Aβ1-42 lowering” value was “ca. 50%”. Besides, in data set [2] (% relative to vehicle), the “residual Aβ1-40 assay signal at high plasma concentrations (best fit curve)” value is 11% and the “residual Aβ1-42 assay signal at high plasma concentrations (best fit curve)” value is 29%. Also, the pIC50 in data set [2] (ip, four-parameter fit, 95% confidence interval 44–158 nM, read-out: apparent IC50 (plasma concentration) for plasma Aβ1-40) was 7.08. Further, in data set [2] (ip, four-parameter fit, 95% confidence interval 618–1053 nM, read-out: apparent IC50 (plasma concentration) for brain Aβ1-42), the pIC50 is 6.09. Also, in data set [2] (ip, four-parameter fit, 95% confidence interval 704–1264 nM, read-out: apparent IC50 (plasma concentration) for brain Aβ1-40), the pIC50 is 6.03. Also, the pIC50 in data set [2] (IP, 5 hours, read-out: concentration in plasma associated with 50% lowering of brain Aβ1-42) was about 6.00. Also, in data set [2] (highest three doses (10, 30, 100 mg/kg IP), 5 hours), the “brain Aβ1-x levels” value is on record as “not affected”. Further, in data set [2] (in mice and rats), the “lowering of brain Aβ1-42 and Aβ1-40” value is at least 75%.
